Laboratory results: ChEMBL document CHEMBL1201862, “PubChem BioAssay data set” (2004)
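Compound exposure: 48 hours, 5 concentrations, 96-well plates. GI50 marks 50% less growth.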 Calls of active or inactive are those of the source. Cut-off read from the data, not from the text of the source: active = GI50 up to about 1.1 µM and inactive = higher.

Columns and labels:
Assay in all cases: DTP human tumour cell line panel, 48 h
[1] = tested on: CAKI-1
[2] = tested on: EKVX
[3] = tested on: HT-29
[4] = tested on: IGROV-1
[5] = tested on: K562
[6] = tested on: LOX IMVI
[7] = tested on: MCF7
[8] = tested on: MDA-N
[9] = tested on: NCI-H23
[10] = tested on: NCI-H460
[11] = tested on: NCI/ADR-RES
[12] = tested on: OVCAR-8
[13] = tested on: SF-539
[14] = tested on: SK-MEL-2
[15] = tested on: SK-MEL-5
[16] = tested on: SNB-19
[17] = tested on: T47D
[18] = tested on: TK-10
[19] = tested on: U-251
[20] = tested on: UO-31

| SMILES | GI50 [1] | GI50 [2] | GI50 [3] | GI50 [4] | GI50 [5] | GI50 [6] | GI50 [7] | GI50 [8] | GI50 [9] | GI50 [10] | GI50 [11] | GI50 [12] | GI50 [13] | GI50 [14] | GI50 [15] | GI50 [16] | GI50 [17] | GI50 [18] | GI50 [19] | GI50 [20] |
| --- | --- | --- | --- | --- | --- | --- | --- | --- | --- | --- | --- | --- | --- | --- | --- | --- | --- | --- | --- | --- |
| CCN(CC)CCCn1c(=O)c2ccccc2n2c3c(=O)n(C)c(=O)n(C)c3nc12 | 1.43 µM (inactive) | 15 µM (inactive) | 6.56 µM (inactive) | 6.58 µM (inactive) | 6.79 µM (inactive) | 3.03 µM (inactive) | 4.76 µM (inactive) | 14.2 µM (inactive) | 4.67 µM (inactive) | 0.355 µM (active) | 13.2 µM (inactive) | 5.08 µM (inactive) | 7.73 µM (inactive) | 18.3 µM (inactive) | 2.22 µM (inactive) | 4.88 µM (inactive) | 17.1 µM (inactive) | 15.8 µM (inactive) | 3.03 µM (inactive) | 4.47 µM (inactive) |
| Cc1cccc2nc3cccc(C(=O)NCCC[N+](C)(CCCNC(=O)c4cccc5nc6cccc(C)c6nc45)Cc4c([N+](=O)[O-])ncn4C)c3nc12 | 0.659 µM (active) | 1.79 µM (inactive) | 0.187 µM (active) | 11.1 µM (inactive) | 25.4 µM (inactive) | 0.0908 µM (active) | 0.436 µM (active) | 0.293 µM (active) | 1.53 µM (inactive) | 0.0632 µM (active) | 38.6 µM (inactive) | 0.0859 µM (active) | 0.41 µM (active) | 6.95 µM (inactive) | 1.95 µM (inactive) | > 1100 µM (inactive) | 21.9 µM (inactive) | 43.9 µM (inactive) | 0.377 µM (active) | 0.726 µM (active) |
| O=C1C2CC=CCC2C(=O)N1n1c(-c2ccccc2)n[nH]c1=O (stereo not drawn) | > 100 µM (inactive) | > 100 µM (inactive) | > 100 µM (inactive) | > 100 µM (inactive) | > 100 µM (inactive) | > 100 µM (inactive) | > 100 µM (inactive) | > 100 µM (inactive) | > 100 µM (inactive) | > 100 µM (inactive) | > 100 µM (inactive) | > 100 µM (inactive) | > 100 µM (inactive) | > 100 µM (inactive) | > 100 µM (inactive) | > 100 µM (inactive) | > 100 µM (inactive) | > 100 µM (inactive) | > 100 µM (inactive) | > 100 µM (inactive) |
| CCOC(=O)Nc1nn[nH]c1Cl | > 100 µM (inactive) | > 100 µM (inactive) | > 100 µM (inactive) | > 100 µM (inactive) | > 100 µM (inactive) | > 100 µM (inactive) | > 100 µM (inactive) | > 100 µM (inactive) | > 100 µM (inactive) | > 100 µM (inactive) | > 100 µM (inactive) | > 100 µM (inactive) | > 100 µM (inactive) | > 100 µM (inactive) | > 100 µM (inactive) |  | > 100 µM (inactive) | > 100 µM (inactive) | > 100 µM (inactive) | > 100 µM (inactive) |
| CCOC(=O)/C=C(/C(=O)OCC)n1ccc(=O)n(Cc2cn(CCCCOC(C)=O)nn2)c1=O | 23.3 µM (inactive) | > 100 µM (inactive) | > 100 µM (inactive) | > 100 µM (inactive) | 55 µM (inactive) | > 100 µM (inactive) | 60.3 µM (inactive) | > 100 µM (inactive) | > 100 µM (inactive) | > 100 µM (inactive) | > 100 µM (inactive) | > 100 µM (inactive) | > 100 µM (inactive) | > 100 µM (inactive) | > 100 µM (inactive) | > 100 µM (inactive) | > 100 µM (inactive) | 58.2 µM (inactive) | > 100 µM (inactive) | > 100 µM (inactive) |
| Cc1ccccc1NC(=O)C(=O)Cc1cnc2ccccc2n1 | > 100 µM (inactive) | > 100 µM (inactive) | > 100 µM (inactive) | > 100 µM (inactive) | > 100 µM (inactive) | > 100 µM (inactive) | > 100 µM (inactive) | > 100 µM (inactive) | > 100 µM (inactive) | > 100 µM (inactive) | > 100 µM (inactive) | > 100 µM (inactive) | > 100 µM (inactive) | > 100 µM (inactive) | > 100 µM (inactive) | > 100 µM (inactive) | > 100 µM (inactive) | > 100 µM (inactive) | > 100 µM (inactive) | > 100 µM (inactive) |
| CCN(CC)CCCC(C)NC(=O)c1cc(-c2nccn2C)nc2ccc(C)cc12 (stereo not drawn) | > 100 µM (inactive) | > 100 µM (inactive) | > 100 µM (inactive) | > 100 µM (inactive) |  | > 100 µM (inactive) | 64.7 µM (inactive) | > 100 µM (inactive) | > 100 µM (inactive) | 33 µM (inactive) | > 100 µM (inactive) | > 100 µM (inactive) | > 100 µM (inactive) | > 100 µM (inactive) | > 100 µM (inactive) | > 100 µM (inactive) | > 100 µM (inactive) | > 100 µM (inactive) | > 100 µM (inactive) | > 100 µM (inactive) |
